# In US20260062422A1 (Halda Therapeutics OpCo, Inc., priority 2022, published 2026):
# Assays:
# [1] = tested on: T-Rex 293 cell line SC3 cells having increased expression of androgen receptor protein due to exposure to doxycycline; assay: Cellular growth inhibition, T-Rex 293 SC3 cells with doxycycline (androgen receptor induced), CellTiter-Glo; type: cell-based; settings: T-Rex 293 SC3 cells with 10 ng/mL doxycycline (increased androgen receptor expression)
# How it was run: (§1)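 Luminescence read-out (CellTiter-Glo 2.0) after 72 h compound exposure; GI50 by four-parameter nonlinear regression, baseline set at zero luminescence. SC3 cells, a doxycycline-inducible wild-type AR clone of T-Rex 293, were cultured ±10 ng/mL doxycycline in charcoal-dextran FBS medium.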
# [2] = tested on: T-Rex 293 cell line SC3 cells lacking increased expression of androgen receptor protein; assay: Cellular growth inhibition, T-Rex 293 SC3 cells without doxycycline, CellTiter-Glo; type: cell-based; settings: T-Rex 293 SC3 cells not exposed to doxycycline, CellTiter-Glo 2.0
# How it was run: as §1
# VCaP cells = assay: Cellular growth inhibition assay for VCaP cells, CellTiter-Glo; type: cell-based, human; settings: 72 hours treatment, CellTiter-Glo 2.0
# How it was run: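 GI50 values come from four-parameter curve fits of luminescence data normalized to a zero baseline. Compound, in medium with 0.5% DMSO, was added one day after plating and left for 72 h before CellTiter-Glo 2.0 addition.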
# T47D cells = assay: Cellular growth inhibition assay for T47D cells, CellTiter-Glo; type: cell-based, human; settings: 72 hours treatment, CellTiter-Glo 2.0 cell viability
# How it was run: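 Growth inhibition as GI50, fitted with four parameters to CellTiter-Glo luminescence after 72 h of compound exposure (0.5% DMSO). Cells were T47D, grown in insulin-supplemented (0.2 units/mL) DMEM with 10% FBS and treated one day post-seeding.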
SMILES,GI50 ([1]; 72 h),GI50 ([2]; 72 h),"GI50 (VCaP cells; Homo sapiens, VCaP, 72 h)","GI50 (T47D cells; Homo sapiens, T47D, 72 h)",GI50 ([2]; 72 hours),GI50 (T47D cells),GI50 ([1]; 72 hours),GI50 (VCaP cells)
CC[C@@H]1N=C(c2ccc(OC3CC4(C3)CC3(CCN(c5ncc(C(=O)N[C@H]6C(C)(C)[C@H](Oc7ccc(C#N)c(Cl)c7)C6(C)C)cn5)CC3)C4)cc2)c2c(sc(C)c2C)-n2c(C)nnc21 [Compound I-606],< 500 nM,> 3000 nM,< 500 nM,> 3000 nM,,,,
CC[C@@H]1N=C(c2ccc(N3CC(CC4CN(c5cnc(C(=O)N[C@H]6C(C)(C)[C@H](Oc7ccc(C#N)c(Cl)c7)C6(C)C)cn5)C4)C3)cc2)c2c(sc(C)c2C)-n2c(C)nnc21 [Compound I-607],< 500 nM,> 3000 nM,> 3000 nM,< 500 nM,,,,
COCC[C@@H]1N=C(c2ccc(N3CC(CC4CCN(c5ncc(C(=O)N[C@H]6C(C)(C)[C@H](Oc7ccc(C#N)c(Cl)c7)C6(C)C)cn5)CC4)C3)cc2)c2c(sc(C)c2C)-n2c(C)nnc21 [Compound I-608],< 500 nM,> 3000 nM,< 500 nM,500 to 1500 nM,,,,
COCC[C@@H]1N=C(c2ccc(N3CC(CC4CCN(c5cnc(C(=O)N[C@H]6C(C)(C)[C@H](Oc7ccc(C#N)c(Cl)c7)C6(C)C)cn5)CC4)C3)cc2)c2c(sc(C)c2C)-n2c(C)nnc21 [Compound I-609],< 500 nM,< 500 nM,500 to 1500 nM,< 500 nM,,,,
COCC[C@@H]1N=C(c2ccc(N3CC(C4CCN(c5ncc(C(=O)N[C@H]6C(C)(C)[C@H](Oc7ccc(C#N)c(Cl)c7)C6(C)C)cn5)CC4)C3)cc2)c2c(sc(C)c2C)-n2c(C)nnc21 [Compound I-610],< 500 nM,> 3000 nM,< 500 nM,1500 to 3000 nM,,,,
COCC[C@@H]1N=C(c2ccc(N3CC(CC4CN(c5cnc(C(=O)N[C@H]6C(C)(C)[C@H](Oc7ccc(C#N)c(Cl)c7)C6(C)C)cn5)C4)C3)cc2)c2c(sc(C)c2C)-n2c(C)nnc21 [Compound I-611],< 500 nM,< 500 nM,< 500 nM,1500 to 3000 nM,,,,
CC[C@@H]1N=C(c2ccc(CC3CCC4(C3)CN(c3ncc(C(=O)N[C@H]5C(C)(C)[C@H](Oc6ccc(C#N)c(Cl)c6)C5(C)C)cn3)CCO4)cc2)c2c(sc(C)c2C)-n2c(C)nnc21 (some centres unmarked) [Compound I-612],< 500 nM,,500 to 1500 nM,,500 to 1500 nM,1500 to 3000 nM,,
CC[C@@H]1N=C(c2ccc(CC3CCC4(C3)CN(c3ncc(C(=O)N[C@H]5C(C)(C)[C@H](Oc6ccc(C#N)c(Cl)c6)C5(C)C)cn3)CCO4)cc2)c2c(sc(C)c2C)-n2c(C)nnc21 (some centres unmarked) [Compound I-613],,,,,> 3000 nM,500 to 1500 nM,< 500 nM,< 500 nM
CC[C@@H]1N=C(c2ccc(CC3CCC4(C3)CN(c3ncc(C(=O)N[C@H]5C(C)(C)[C@H](Oc6ccc(C#N)c(Cl)c6)C5(C)C)cn3)CCO4)cc2)c2c(sc(C)c2C)-n2c(C)nnc21 (some centres unmarked) [Compound I-614],,,,,> 3000 nM,< 500 nM,< 500 nM,< 500 nM
CC[C@@H]1N=C(c2ccc(CC3CCC4(C3)CN(c3ncc(C(=O)N[C@H]5C(C)(C)[C@H](Oc6ccc(C#N)c(Cl)c6)C5(C)C)cn3)CCO4)cc2)c2c(sc(C)c2C)-n2c(C)nnc21 (some centres unmarked) [Compound I-615],,,,,< 500 nM,> 3000 nM,< 500 nM,< 500 nM
Cc1sc2c(c1C)C(c1ccc(N3CC(C4CCN(c5ncc(C(=O)N[C@H]6C(C)(C)[C@H](Oc7ccc(C#N)c(Cl)c7)C6(C)C)cn5)C4)C3)cc1)=N[C@@H](C)c1nnc(C)n1-2 (some centres unmarked) [Compound I-616],< 500 nM,< 500 nM,< 500 nM,< 500 nM,,,,
Cc1sc2c(c1C)C(c1ccc(N3CC(C4CCN(c5ncc(C(=O)N[C@H]6C(C)(C)[C@H](Oc7ccc(C#N)c(Cl)c7)C6(C)C)cn5)C4)C3)cc1)=N[C@@H](C)c1nnc(C)n1-2 (some centres unmarked) [Compound I-617],,,,,< 500 nM,< 500 nM,< 500 nM,< 500 nM
Cc1sc2c(c1C)C(c1ccc(N3CC(CC4CCN(c5ncc(C(=O)N(C)[C@H]6C(C)(C)[C@H](Oc7ccc(C#N)c(Cl)c7)C6(C)C)cn5)CC4)C3)cc1)=N[C@@H](C)c1nnc(C)n1-2 [Compound I-618],< 500 nM,> 3000 nM,1500 to 3000 nM,< 500 nM,,,,
Cc1sc2c(c1C)C(c1ccc(CC3CCC4(C3)CN(c3ncc(C(=O)N[C@H]5C(C)(C)[C@H](Oc6ccc(C#N)c(Cl)c6)C5(C)C)cn3)CCO4)cc1)=N[C@@H](C)c1nnc(C)n1-2 (some centres unmarked) [Compound I-619],< 500 nM,500 to 1500 nM,< 500 nM,< 500 nM,,,,
Cc1sc2c(c1C)C(c1ccc(CC3CCC4(C3)CN(c3ncc(C(=O)N[C@H]5C(C)(C)[C@H](Oc6ccc(C#N)c(Cl)c6)C5(C)C)cn3)CCO4)cc1)=N[C@@H](C)c1nnc(C)n1-2 (some centres unmarked) [Compound I-620],,,,,< 500 nM,500 to 1500 nM,< 500 nM,< 500 nM
Cc1sc2c(c1C)C(c1ccc(N3CC(CC4CN(c5ccc(C(=O)N[C@H]6C(C)(C)[C@H](Oc7ccc(C#N)c(Cl)c7)C6(C)C)nc5)C4)C3)cc1)=N[C@@H](Cc1ncco1)c1nnc(C)n1-2 [Compound I-621],< 500 nM,< 500 nM,< 500 nM,< 500 nM,,,,
Cc1sc2c(c1C)C(c1ccc(NCC3(F)CCN(c4ncc(C(=O)N[C@H]5C(C)(C)[C@H](Oc6ccc(C#N)c(Cl)c6)C5(C)C)cn4)CC3)cc1)=NC(Cc1ncco1)c1nnc(C)n1-2 (some centres unmarked) [Compound I-634],< 500 nM,> 3000 nM,500 to 1500 nM,< 500 nM,,,,
Cc1sc2c(c1C)C(c1ccc(N3C4CCC3CN(c3ncc(C(=O)N[C@H]5C(C)(C)[C@H](Oc6ccc(C#N)c(Cl)c6)C5(C)C)cn3)C4)cc1)=N[C@@H](Cc1ncco1)c1nnc(C)n1-2 [Compound I-635],,,< 500 nM,< 500 nM,< 500 nM,,< 500 nM,
Cc1sc2c(c1C)C(c1ccc(NCC3CCN(c4ncc(C(=O)N[C@H]5C(C)(C)[C@H](Oc6ccc(C#N)c(Cl)c6)C5(C)C)cn4)CC3)cc1)=N[C@@H](Cc1ncco1)c1nnc(C)n1-2 [Compound I-636],< 500 nM,< 500 nM,< 500 nM,< 500 nM,,,,
Cc1sc2c(c1C)C(c1ccc(N3CCCC4(CCN(c5ncc(C(=O)N[C@H]6C(C)(C)[C@H](Oc7ccc(C#N)c(Cl)c7)C6(C)C)cn5)CC4)C3)cc1)=NC(Cc1ncco1)c1nnc(C)n1-2 (some centres unmarked) [Compound I-637],< 500 nM,> 3000 nM,< 500 nM,< 500 nM,,,,
Cc1sc2c(c1C)C(c1ccc(NCC3CCCCN3c3ncc(C(=O)N[C@H]4C(C)(C)[C@H](Oc5ccc(C#N)c(Cl)c5)C4(C)C)cn3)cc1)=NC(Cc1ncco1)c1nnc(C)n1-2 (some centres unmarked) [Compound I-638],< 500 nM,< 500 nM,< 500 nM,< 500 nM,,,,
Cc1sc2c(c1C)C(c1ccc(NCC3CCN(c4ncc(C(=O)N[C@H]5C(C)(C)[C@H](Oc6ccc(C#N)c(Cl)c6)C5(C)C)cn4)C3)cc1)=NC(Cc1ncco1)c1nnc(C)n1-2 (some centres unmarked) [Compound I-639],< 500 nM,< 500 nM,< 500 nM,< 500 nM,,,,
Cc1sc2c(c1C)C(c1ccc(NC3CCCN(c4ncc(C(=O)N[C@H]5C(C)(C)[C@H](Oc6ccc(C#N)c(Cl)c6)C5(C)C)cn4)CC3)cc1)=NC(Cc1ncco1)c1nnc(C)n1-2 (some centres unmarked) [Compound I-640],< 500 nM,500 to 1500 nM,< 500 nM,< 500 nM,,,,
